# Data as given in ChEMBL document CHEMBL1158711, “Bisindigotin, a TCDD antagonist from the Chinese medicinal herb Isatis indigotica” (J Nat Prod, 2005).
# Experiment: Inhibition of TCDD-induced EROD activity in human HepG2 cells after 24 hrs
# Assay type: cell-based
row,IC50,SMILES
1,3000 nM,CC(=O)N1/C(=C2\N=c3ccccc3=C2c2c(C3=Nc4ccccc4C3=O)[nH]c3ccccc23)C(=O)c2ccccc21
2,320 nM,O=c1cc(-c2ccccc2)oc2c1ccc1ccccc12 [ALPHA-NAPHTHOFLAVONE]
3,800 nM,O=C1C(c2[nH]c3ccccc3c2C2=c3ccccc3=N/C2=C2\Nc3ccccc3C2=O)=Nc2ccccc21 [BISINDIGOTIN]
